The record followed here is patent publication US7816522B2, “Triazolone derivatives” (Eisai Co., Ltd., priority 2006, dated 2010).

The target of this assay is T1, human clotting factor VIIa (Homo sapiens, UniProt P08709).
T1 construct: a human clotting factor VIIa (hereinafter, “Factor VIIa”) purified sample; purchased Enzyme Research Laboratories HFVIIa
In words: Inhibitory activity against clotting factor VIIa (chromogenic substrate Spectrozyme FVIIa, TF/Factor VIIa enzyme solution). In kind it is biochemical. Particulars: human Factor VIIa 5 nmol/L with human TF 10 nmol/L, room temperature 40 minutes, 405 nm. In a few lines:
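Human Factor VIIa (5 nmol/L) with human TF (10 nmol/L) in Tris-BSA buffer pH 7.4 containing 15 mmol/L CaCl2 and cephalin, with Spectrozyme FVIIa substrate. Reaction 40 min at room temperature; 4-nitroanilide read at 405 nm. IC50 by non-linear regression over 100 μmol/L–0.1 nmol/L.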

T1 sequence (P08709 213-466 limits assumed): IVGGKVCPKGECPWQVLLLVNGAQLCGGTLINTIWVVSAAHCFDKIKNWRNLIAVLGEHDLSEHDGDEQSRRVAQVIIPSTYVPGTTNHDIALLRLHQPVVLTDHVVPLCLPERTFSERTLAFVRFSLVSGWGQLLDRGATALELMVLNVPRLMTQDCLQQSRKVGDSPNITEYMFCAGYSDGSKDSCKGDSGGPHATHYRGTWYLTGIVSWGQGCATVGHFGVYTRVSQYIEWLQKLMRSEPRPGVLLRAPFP
T1 sequence (P08709 61-212 limits assumed): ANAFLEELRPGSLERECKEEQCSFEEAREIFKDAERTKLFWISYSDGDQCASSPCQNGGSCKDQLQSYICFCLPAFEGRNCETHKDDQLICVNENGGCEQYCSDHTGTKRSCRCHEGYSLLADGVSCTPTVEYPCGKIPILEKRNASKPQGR
T1 sequence (P13726 33-295 partner): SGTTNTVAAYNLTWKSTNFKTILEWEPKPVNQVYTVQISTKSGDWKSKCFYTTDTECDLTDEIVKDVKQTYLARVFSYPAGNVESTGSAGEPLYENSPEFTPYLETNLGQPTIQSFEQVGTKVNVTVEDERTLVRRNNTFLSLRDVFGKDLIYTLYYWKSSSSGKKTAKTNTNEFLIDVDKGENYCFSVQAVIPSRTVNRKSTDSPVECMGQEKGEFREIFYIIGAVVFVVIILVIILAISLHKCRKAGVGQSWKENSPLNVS

For orientation: IC50 means the concentration that inhibits the measured activity by half. Read a high IC50 as a need for much substance. Take `COc1cc(OCCO)c(F)c(C(Nc2ccc(C(=N)N)c(F)c2)c2nn(-c3ncccn3)c(=O)[nH]2)c1` (racemic) [Example 218, 2-Fluoro-4-{[[2-fluoro-3-(2-hydroxyethoxy)-5-methoxyphenyl]-(5-oxo-1-pyrimidin-2-yl-4,5-dihydro-1H-[1,2,4]triazol-3-yl)methyl]amino}benzamidine]: the IC50 worked out at 52.4 nM. The compound `CCOc1cc(OCCO)c(F)c(C(Nc2ccc(C(=N)N)cc2)c2nn(-c3ncccn3)c(=O)[nH]2)c1` (racemic) [Example 219, (R) and (S)-4-{[[5-Ethoxy-2-fluoro-3-(2-hydroxyethoxy)phenyl]-(5-oxo-1-pyrimidin-2-yl-4,5-dihydro-1H-[1,2,4]triazol-3-yl)methyl]amino}benzamidine acetate] showed an IC50 of 9.5 nM.

With `CCOc1cc(OCCO)cc(C(Nc2ccc(C(=N)N)cc2)c2nn(-c3ncccn3)c(=O)[nH]2)c1` (racemic) [Example 220, 4-{[[3-Ethoxy-5-(2-hydroxyethoxy)phenyl]-(5-oxo-1-pyrimidin-2-yl-4,5-dihydro-1H-[1,2,4]triazol-3-yl)methyl]amino}benzamidine], 7.2 nM corresponded to half-maximal inhibition (IC50). Then `CCOc1cc(O)cc(C(Nc2ccc(C(=N)N)cc2)c2nn(-c3ncccn3)c(=O)[nH]2)c1` (racemic) [Example 221, 4-{[(3-Ethoxy-5-hydroxyphenyl)-(5-oxo-1-pyrimidin-2-yl-4,5-dihydro-1H-[1,2,4]triazol-3-yl)methyl]amino}benzamidine], with 25.8 nM.

For `COc1cc(C(Nc2ccc(C(=N)N)cc2)c2nn(-c3ccsc3C(=O)O)c(=O)[nH]2)c(F)c2c1OCCC2` (racemic) [Example 222, 3-{3-[(4-Carbamimidoylphenylamino)-(5-fluoro-8-methoxychroman-6-yl)methyl]-5-oxo-4,5-dihydro-[1,2,4]triazol-1-yl}thiophene-2-carboxylic acid], the 50% inhibitory concentration (IC50) was 2.7 nM.

`COc1cc(C(Nc2ccc(C(=N)N)cc2)c2nn(-c3ncccn3)c(=O)[nH]2)cc2c1OCC(=O)N2CCF` (racemic) [Example 223, 4-{[[4-(2-Fluoroethyl)-8-methoxy-3-oxo-3,4-dihydro-2H-benzo[1,4]oxazin-6-yl]-(5-oxo-1-pyrimidin-2-yl-4,5-dihydro-1H-[1,2,4]triazol-3-yl)methyl]amino}benzamidine] gave an IC50 of 13.4 nM. Then `COc1cc(OC)cc(C(Nc2ccc(C(=N)N)cc2)c2nn(-c3ncccc3C)c(=O)[nH]2)c1` (racemic) [Example 225, (R) and (S)-4-({(3,5-Dimethoxyphenyl)-[1-(3-methylpyridin-2-yl)-5-oxo-4,5-dihydro-1H-[1,2,4]triazol-3-yl]methyl}amino)benzamidine acetate], with 3.7 nM; and `COc1cc(C(Nc2ccc(C(=N)N)cc2)c2nn(-c3ccsc3C(=O)O)c(=O)[nH]2)cc2c1OCOC2` (racemic) [Example 226, 3-{3-[(R) and (S)-(4-Carbamimidoylphenylamino)-(8-methoxy-4H-benzo[1,3]dioxin-6-yl)methyl]-5-oxo-4,5-dihydro-[1,2,4]triazol-1-yl}thiophene-2-carboxylic acid], with 3.2 nM; and `COc1cc(C(Nc2ccc(C(=N)N)cc2)c2nn(-c3ccsc3C(=O)O)c(=O)[nH]2)cc(OC)c1OC` (racemic) [Example 227, 3-{3-[(R) and (S)-(4-Carbamimidoylphenylamino)-(3,4,5-trimethoxyphenyl)methyl]-5-oxo-4,5-dihydro-[1,2,4]triazol-1-yl}thiophene-2-carboxylic acid], with 4.5 nM. As for `COc1cc(OCCO)c(F)c(C(Nc2ccc(C(=N)N)cc2)c2nn(-c3ccsc3C(=O)O)c(=O)[nH]2)c1` (racemic) [Example 228, (R) and (S)-3-(3-{(4-Carbamimidoylphenylamino)-[2-fluoro-3-(2-hydroxyethoxy)-5-methoxyphenyl]methyl}-5-oxo-4,5-dihydro[1,2,4]triazol-1-yl)thiophene-2-carboxylic acid], the figure is 2.6 nM; as for `COc1cc(OCCCO)c(F)c(C(Nc2ccc(C(=N)N)cc2)c2nn(-c3ncccn3)c(=O)[nH]2)c1` (racemic) [Example 229, (R) and (S)-4-{[[2-Fluoro-3-(3-hydroxypropoxy)-5-methoxyphenyl]-(5-oxo-1-pyrimidin-2-yl-4,5-dihydro-1H-[1,2,4]triazol-3-yl)methyl]amino}benzamidine acetate], 5.1 nM. As for `COc1cc(C(Nc2ccc(C(=N)N)cc2)c2nn(-c3ccsc3C(=O)O)c(=O)[nH]2)cc(OCCO)c1OC` (racemic) [Example 230, (R) and (S)-3-(3-{(4-Carbamimidoylphenylamino)-[3-(2-hydroxyethoxy)-4,5-dimethoxyphenyl]methyl}-5-oxo-4,5-dihydro-[1,2,4]triazol-1-yl)thiophene-2-carboxylic acid], the figure is 4.9 nM; as for `COc1cc(C(Nc2ccc(C(=N)N)c(F)c2)c2nn(-c3ccsc3C(=O)O)c(=O)[nH]2)c(F)c2c1OCCO2` (racemic) [Example 231, 3-{3-[(4-Carbamimidoyl-3-fluorophenylamino)-(5-fluoro-8-methoxy-2,3-dihydrobenzo[1,4]dioxin-6-yl)methyl]-5-oxo-4,5-dihydro-[1,2,4]triazol-1-yl}thiophene-2-carboxylic acid], 6.5 nM; as for `COc1cc(OC)cc(C(Nc2ccc(C(=N)N)cc2)c2nn(-c3ncsc3C(=O)O)c(=O)[nH]2)c1` (racemic) [Example 232, (R) and (S)-4-{3-[(4-Carbamimidoylphenylamino)-(3,5-dimethoxyphenyl)methyl]-5-oxo-4,5-dihydro-[1,2,4]triazol-1-yl}thiazole-5-carboxylic acid], 23.7 nM. Take `COc1cc(C(Nc2ccc(C(=N)N)cc2)c2nn(-c3ncsc3C(=O)O)c(=O)[nH]2)cc(OCCO)c1OC` (racemic) [Example 233, (R) and (S)-4-(3-{(4-Carbamimidoylphenylamino)-[3-(2-hydroxyethoxy)-4,5-dimethoxyphenyl]methyl}-5-oxo-4,5-dihydro-[1,2,4]triazol-1-yl)thiazole-5-carboxylic acid]: half-maximal inhibition (IC50) required 23.8 nM. As for `COc1cc(C(Nc2ccc(C(=N)N)cc2)c2nn(-c3ncccn3)c(=O)[nH]2)cnc1OC` (racemic) [Example 234, 4-{[(5,6-Dimethoxypyridin-3-yl)-(5-oxo-1-pyrimidin-2-yl-4,5-dihydro-1H-[1,2,4]triazol-3-yl)methyl]amino}benzamidine], the figure is 11.1 nM. As for `CCOc1cc(C(Nc2ccc(C(=N)N)cc2)c2nn(-c3ccsc3C(=O)O)c(=O)[nH]2)cnc1OC` (racemic) [Example 235, 3-{3-[(4-Carbamimidoylphenylamino)-(5-ethoxy-6-methoxypyridin-3-yl)methyl]-5-oxo-4,5-dihydro-[1,2,4]triazol-1-yl}thiophene-2-carboxylic acid], the figure is 3.8 nM; as for `COc1cc(F)c(C(Nc2ccc(C(=N)N)cc2F)c2nn(-c3ncccn3)c(=O)[nH]2)cc1OC` (racemic) [Example 236, 3-Fluoro-4-{[(R) and (S)-(2-fluoro-4,5-dimethoxyphenyl)-(5-oxo-1-pyrimidin-2-yl-4,5-dihydro-1H-[1,2,4]triazol-3-yl)methyl]amino}benzamidine acetate], 11.8 nM. As for `COc1cc(C(Nc2ccc(C(=N)N)cc2)c2nn(-c3ccsc3C(=O)O)c(=O)[nH]2)c(F)cc1OCCO` (racemic) [Example 237, 3-(3-{(4-Carbamimidoylphenylamino)-[2-fluoro-4-(2-hydroxyethoxy)-5-methoxyphenyl]methyl}-5-oxo-4,5-dihydro-[1,2,4]triazol-1-yl)thiophene-2-carboxylic acid], the figure is 23.5 nM. `COc1cc(OC)c(F)c(C(Nc2ccc(C(=N)N)cc2)c2nn(-c3cccc[n+]3[O-])c(=O)[nH]2)c1` (single isomer, unassigned) [Example 2] came in with an IC50 of 9.4 nM.

In turn, `COc1cc(C(Nc2ccc(C(=N)N)cc2)c2nn(-c3ncsc3C(=O)O)c(=O)[nH]2)cc2c1OCCCO2` (single isomer, unassigned) [Example 180, 4-{3-[(4-carbamimidoylphenylamino)-(9-methoxy-3,4-dihydro-2H-benzo[b][1,4]dioxepin-7-yl)methyl]-5-oxo-4,5-dihydro-[1,2,4]triazol-1-yl}thiazole-5-carboxylic acid] showed an IC50 of 10.1 nM. Compound `CCOc1cc(C(Nc2ccc(C(=N)N)cc2)c2nn(-c3ncsc3C(=O)O)c(=O)[nH]2)cnc1OC` (single isomer, unassigned) [Example 185, 4-{3-[(4-Carbamimidoylphenylamino)-(5-ethoxy-6-methoxypyridin-3-yl)methyl]-5-oxo-4,5-dihydro-[1,2,4]triazol-1-yl}thiazole-5-carboxylic acid] registered an IC50 of 11.6 nM.

Turning to `COc1cc(F)c(C(Nc2ccc(C(=N)N)cc2)c2nn(-c3nc[nH]c3C(=O)O)c(=O)[nH]2)cc1OC` (single isomer, unassigned) [Example 187, 5-{3-[(4-Carbamimidoylphenylamino)-(2-fluoro-4,5-dimethoxyphenyl)methyl]-5-oxo-4,5-dihydro-[1,2,4]triazol-1-yl}-3H-imidazole-4-carboxylic acid], the IC50 was 9 nM.

In turn, `COc1cc(C(Nc2ccc(C(=N)N)cc2)c2nn(-c3ncsc3C(=O)O)c(=O)[nH]2)c(F)c2c1OCCO2` (single isomer, unassigned) [Example 188, 4-{3-[(4-Carbamimidoylphenylamino)-(5-fluoro-8-methoxy-2,3-dihydro-benzo[1,4]dioxin-6-yl)-methyl]-5-oxo-4,5-dihydro-[1,2,4]triazol-1-yl}thiazole-5-carboxylic acid] came in with an IC50 of 22.4 nM.
